From ChEMBL document CHEMBL1142742, “Synthesis and in vitro and in vivo structure-activity relationships of novel antifungal triazoles for dermatology” (2005)
Converted amounts (≈) assume the structure as drawn.

Columns and labels:
Format in all cases: functional
Trichophyton tonsurans = test: Minimum inhibitory concentration against Trichophyton tonsurans (n=18)
Trichophyton rubrum = test: Minimum inhibitory concentration against Trichophyton rubrum (n=14)
[1] = Minimum inhibitory concentration against Microsporum species (n=38)
[2] = Minimum inhibitory concentration against Trichophyton species (n=80)
Cavia porcellus [3] = species: Cavia porcellus; test: Effective dose was measured in guinea pig infected with Microsporum canis on 7th day
Aspergillus sp. = test: Minimum inhibitory concentration against Aspergillus species (n=8)
Mus musculus = species: Mus musculus; test: Effective dose was measured in mice infected with Trichophyton mentagrophytes
Epidermophyton floccosum = test: Minimum inhibitory concentration against Epidermophyton floccosum (n=12)
Cavia porcellus [4] = species: Cavia porcellus; test: Effective dose was measured in guinea pig infected with Microsporum canis on 21st day
Cavia porcellus [5] = species: Cavia porcellus; test: Effective dose was measured in guinea pig infected with Microsporum canis on 14th day
Candida = test: Minimum inhibitory concentration against Candida species (n=24)
Trichophyton benhamiae = test: Minimum inhibitory concentration against Trichophyton mentagrophytes (n=20)
[6] = Trichophyton tonsurans, read-out: MIC50
[7] = Trichophyton tonsurans, read-out: MIC90
[8] = Trichophyton rubrum, read-out: MIC50
[9] = Trichophyton rubrum, read-out: MIC90
[10] = Cavia porcellus, read-out: ED50
[11] = Aspergillus sp., read-out: MIC50
[12] = Aspergillus sp., read-out: MIC90
[13] = Epidermophyton floccosum, read-out: MIC50
[14] = Epidermophyton floccosum, read-out: MIC90
[15] = Trichophyton benhamiae, read-out: MIC50
[16] = Trichophyton benhamiae, read-out: MIC90

Compound | MIC50 (Trichophyton tonsurans; [6]) [µg/mL] | MIC90 (Trichophyton tonsurans; [7]) [µg/mL] | MIC50 (Trichophyton rubrum; [8]) [µg/mL] | MIC90 (Trichophyton rubrum; [9]) [µg/mL] | MIC50 ([1]; Microsporum, read-out: MIC50) [µg/mL] | MIC90 ([1]; Microsporum, read-out: MIC90) [µg/mL] | MIC50 ([2]; Trichophyton, read-out: MIC50) [µg/mL] | MIC90 ([2]; Trichophyton, read-out: MIC90) [µg/mL] | ED50 (Cavia porcellus [3]; [10]) [mg/kg] | MIC50 (Aspergillus sp.; [11]) [µg/mL] | MIC90 (Aspergillus sp.; [12]) [µg/mL] | ED50 (Mus musculus; Mus musculus, read-out: ED50) [mg/kg] | MIC50 (Epidermophyton floccosum; [13]) [µg/mL] | MIC90 (Epidermophyton floccosum; [14]) [µg/mL] | ED50 (Cavia porcellus [4]; [10]) [mg/kg] | ED50 (Cavia porcellus [5]; [10]) [mg/kg] | MIC90 (Candida) [µg/mL] | MIC50 (Candida; Candida, read-out: MIC50) [µg/mL] | MIC50 (Trichophyton benhamiae; [15]) [µg/mL] | MIC90 (Trichophyton benhamiae; [16]) [µg/mL] | other results
CCN1C(=O)N(c2ccc(N3CCN(c4ccc(OC[C@H]5CO[C@](Cn6cncn6)(c6ccc(F)cc6F)O5)cc4)CC3)cc2)C(=O)C(C)(C)C1=O | > 20 | > 20 | 11.6 (≈ 16.2 µM) | > 20 | 10 (≈ 14 µM) | > 20 | > 20 | > 20 | > 5 | > 20 | > 20 | 3.1 | 3.2 (≈ 4.47 µM) | > 20 | > 5 | > 5 | > 20 | 0.66 (≈ 0.922 µM) | 1 (≈ 1.4 µM) | > 20 | 
CN(C/C=C/C#CC(C)(C)C)Cc1cccc2ccccc12 [TERBINAFINE] | 0.032 (≈ 0.11 µM) | 0.0524 (≈ 0.18 µM) | 0.01 (≈ 0.0343 µM) | 0.0254 (≈ 0.0872 µM) | 0.032 (≈ 0.11 µM) | 0.032 (≈ 0.11 µM) | 0.01 (≈ 0.0343 µM) | 0.032 (≈ 0.11 µM) | 10 | 0.32 (≈ 1.1 µM) | 1.66 (≈ 5.7 µM) | 2.5 | 0.032 (≈ 0.11 µM) | 0.093 (≈ 0.319 µM) | 10 | 10 | 20 (≈ 68.6 µM) | 20 (≈ 68.6 µM) | 0.01 (≈ 0.0343 µM) | 0.01 (≈ 0.0343 µM) | 
CC(C)N1CCN(c2ccc(N3CCN(c4ccc(OC[C@@H]5CO[C@@](Cn6cncn6)(c6ccc(F)cc6F)O5)cc4)CC3)cc2)C1=O | 1 (≈ 1.52 µM) | 1 (≈ 1.52 µM) | 0.32 (≈ 0.485 µM) | 0.934 (≈ 1.42 µM) | 0.1 (≈ 0.152 µM) | 0.32 (≈ 0.485 µM) | 0.32 (≈ 0.485 µM) | 1 (≈ 1.52 µM) | 0.33 | 0.66 (≈ 1 µM) | 1.66 (≈ 2.52 µM) | > 2.5 | 0.032 (≈ 0.0485 µM) | 0.093 (≈ 0.141 µM) | 0.33 | 0.44 | > 20 | 0.32 (≈ 0.485 µM) | 0.032 (≈ 0.0485 µM) | 0.032 (≈ 0.0485 µM) | 
CCN1C(=O)N(c2ccc(N3CCN(c4ccc(OC[C@@H]5CO[C@@](Cn6cncn6)(c6ccc(F)cc6F)O5)cc4)CC3)cc2)C(=O)C(C)(C)C1=O | > 20 | > 20 | 11.6 (≈ 16.2 µM) | > 20 | 3.2 (≈ 4.47 µM) | > 20 | > 20 | > 20 | 1.18 | > 20 | > 20 | > 2.5 | 1 (≈ 1.4 µM) | 1 (≈ 1.4 µM) | 2.35 | 3.28 | > 20 | 0.32 (≈ 0.447 µM) | 1 (≈ 1.4 µM) | > 20 | 
CCCn1c(=O)n(CC)c(=O)n(-c2ccc(N3CCN(c4ccc(OC[C@H]5OC[C@](Cn6cncn6)(c6ccc(F)cc6F)O5)cc4)CC3)cc2)c1=O | 10 (≈ 13.7 µM) | > 20 | 3.2 (≈ 4.38 µM) | 10 (≈ 13.7 µM) | 3.2 (≈ 4.38 µM) | > 20 | 3.2 (≈ 4.38 µM) | > 20 | 1.25 | > 20 | > 20 | > 1.25 | 1 (≈ 1.37 µM) | 3.2 (≈ 4.38 µM) | > 2.5 | 2.35 | > 20 | 3.2 (≈ 4.38 µM) | 1 (≈ 1.37 µM) | 3.2 (≈ 4.38 µM) | 
CCC(C)n1ncn(-c2ccc(N3CCN(c4ccc(OC[C@H]5CO[C@](Cn6cncn6)(c6ccc(Cl)cc6Cl)O5)cc4)CC3)cc2)c1=O (some centres not stated) [ITRACONAZOLE] | 0.32 (≈ 0.453 µM) | 0.524 (≈ 0.743 µM) | 0.01 (≈ 0.0142 µM) | 0.32 (≈ 0.453 µM) | 0.032 (≈ 0.0453 µM) | 0.524 (≈ 0.743 µM) | 0.1 (≈ 0.142 µM) | 1 (≈ 1.42 µM) | 0.84 | 0.32 (≈ 0.453 µM) | 1.18 (≈ 1.68 µM) | 2.6 | 0.032 (≈ 0.0453 µM) | 0.093 (≈ 0.132 µM) | 1.18 | 1.2 | 17 (≈ 24.1 µM) | 0.1 (≈ 0.142 µM) | 0.01 (≈ 0.0142 µM) | 0.129 (≈ 0.183 µM) | 
CCCn1c(=O)n(CC)c(=O)n(-c2ccc(N3CCN(c4ccc(OC[C@@H]5OC[C@@](Cn6cncn6)(c6ccc(F)cc6F)O5)cc4)CC3)cc2)c1=O | > 20 | > 20 | > 20 | > 20 | > 20 | > 20 | > 20 | > 20 | > 2.5 | > 20 | > 20 |  | > 20 | > 20 | > 2.5 | > 2.5 | > 20 | 10 (≈ 13.7 µM) | > 20 | > 20 | 
CCC1C(=O)N(CC)C(=O)N(c2ccc(N3CCN(c4ccc(OC[C@@H]5CO[C@@](Cn6cncn6)(c6ccc(F)cc6F)O5)cc4)CC3)cc2)C1=O (some centres not stated) | > 20 | > 20 | 3.2 (≈ 4.47 µM) | > 20 | 1 (≈ 1.4 µM) | > 20 | > 20 | > 20 | 1.18 | > 20 | > 20 | 2.86 | 1 (≈ 1.4 µM) | 3.2 (≈ 4.47 µM) | 1.94 | 1.94 | > 20 | 0.32 (≈ 0.447 µM) | 1 (≈ 1.4 µM) | > 20 | 
CCN1C(=O)N(c2ccc(N3CCN(c4ccc(OC[C@@H]5OC[C@@](Cn6cncn6)(c6ccc(F)cc6F)O5)cc4)CC3)cc2)C(=O)C(C)(C)C1=O | > 20 | > 20 | > 20 | > 20 | > 20 | > 20 | > 20 | > 20 | > 2.5 | > 20 | > 20 |  | > 20 | > 20 | > 2.5 | > 2.5 | > 20 | 15 (≈ 21 µM) | > 20 | > 20 | 
CC(C)N1CCN(c2ccc(N3CCN(c4ccc(OC[C@@H]5OC[C@@](Cn6cncn6)(c6ccc(F)cc6F)O5)cc4)CC3)cc2)C1=O | 20 (≈ 30.3 µM) | 20 (≈ 30.3 µM) | 20 (≈ 30.3 µM) | 20 (≈ 30.3 µM) | 2.1 (≈ 3.18 µM) | 20 (≈ 30.3 µM) | 20 (≈ 30.3 µM) | 20 (≈ 30.3 µM) | 2.5 | 20 (≈ 30.3 µM) | 20 (≈ 30.3 µM) |  | 1 (≈ 1.52 µM) | 20 (≈ 30.3 µM) | 2.5 | 2.5 | 20 (≈ 30.3 µM) | 20 (≈ 30.3 µM) | 1 (≈ 1.52 µM) | 20 (≈ 30.3 µM) | 
CCN1C(=O)N(c2ccc(N3CCN(c4ccc(OC[C@H]5OC[C@](Cn6cncn6)(c6ccc(F)cc6F)O5)cc4)CC3)cc2)C(=O)C(C)(C)C1=O | 3.2 (≈ 4.47 µM) | 13 (≈ 18.2 µM) | 3.2 (≈ 4.47 µM) | 10 (≈ 14 µM) | 3.2 (≈ 4.47 µM) | > 20 | 3.2 (≈ 4.47 µM) | > 20 | 2.35 | > 20 | > 20 |  | 1 (≈ 1.4 µM) | 2.98 (≈ 4.16 µM) | 2.35 | 2.35 | > 20 | 0.66 (≈ 0.922 µM) | 3.2 (≈ 4.47 µM) | 3.2 (≈ 4.47 µM) | 
CCCn1c(=O)n(CC)c(=O)n(-c2ccc(N3CCN(c4ccc(OC[C@H]5CO[C@](Cn6cncn6)(c6ccc(F)cc6F)O5)cc4)CC3)cc2)c1=O |  |  | 3.2 (≈ 4.38 µM) | 3.2 (≈ 4.38 µM) | 1 (≈ 1.37 µM) | 13 (≈ 17.8 µM) | > 20 | > 20 | > 2.5 | 10 (≈ 13.7 µM) | > 20 |  | 1 (≈ 1.37 µM) | 3.2 (≈ 4.38 µM) | > 2.5 | > 2.5 | 10 (≈ 13.7 µM) | 1 (≈ 1.37 µM) | 0.32 (≈ 0.438 µM) | 1 (≈ 1.37 µM) | 
CC(C)N1CCN(c2ccc(N3CCN(c4ccc(OC[C@H]5OC[C@](Cn6cncn6)(c6ccc(F)cc6F)O5)cc4)CC3)cc2)C1=O (stereo in doubt; 4c) [PRAMICONAZOLE] |  |  |  |  |  |  |  |  |  |  |  |  |  |  |  |  |  |  |  |  | MIC50 (Trichophyton tonsurans): 0.32 µg/mL (≈ 0.485 µM); MIC90 (Trichophyton tonsurans): 0.1 µg/mL (≈ 0.152 µM); MIC50 (Trichophyton rubrum): 0.32 µg/mL (≈ 0.485 µM); MIC90 (Trichophyton rubrum): 0.796 µg/mL (≈ 1.21 µM); MIC50 [1]: 0.032 µg/mL (≈ 0.0485 µM); MIC90 [1]: 0.524 µg/mL (≈ 0.794 µM); MIC50 [2]: 0.1 µg/mL (≈ 0.152 µM); MIC90 [2]: 1.22 µg/mL (≈ 1.85 µM); ED50 (Cavia porcellus [3]): <0.31 mg/kg; MIC50 (Aspergillus sp.): >20 µg/mL; MIC90 (Aspergillus sp.): >20 µg/mL; ED50 (Mus musculus): <0.63 mg/kg; MIC50 (Epidermophyton floccosum): 0.32 µg/mL (≈ 0.485 µM); MIC90 (Epidermophyton floccosum): 0.093 µg/mL (≈ 0.141 µM); ED50 (Cavia porcellus [4]): <0.31 mg/kg; ED50 (Cavia porcellus [5]): <0.31 mg/kg; MIC50 (Candida): 0.1 µg/mL (≈ 0.152 µM); MIC50 (Trichophyton benhamiae): 0.01 µg/mL (≈ 0.0152 µM); MIC90 (Trichophyton benhamiae): 0.032 µg/mL (≈ 0.0485 µM)
